Target: T1, NPY5R (Homo sapiens, UniProt Q15761)
T1 construct: purchased Promega (in-house HiBiT-GPCR construct library, NanoBRET)
T1 sequence (Q15761 1-445): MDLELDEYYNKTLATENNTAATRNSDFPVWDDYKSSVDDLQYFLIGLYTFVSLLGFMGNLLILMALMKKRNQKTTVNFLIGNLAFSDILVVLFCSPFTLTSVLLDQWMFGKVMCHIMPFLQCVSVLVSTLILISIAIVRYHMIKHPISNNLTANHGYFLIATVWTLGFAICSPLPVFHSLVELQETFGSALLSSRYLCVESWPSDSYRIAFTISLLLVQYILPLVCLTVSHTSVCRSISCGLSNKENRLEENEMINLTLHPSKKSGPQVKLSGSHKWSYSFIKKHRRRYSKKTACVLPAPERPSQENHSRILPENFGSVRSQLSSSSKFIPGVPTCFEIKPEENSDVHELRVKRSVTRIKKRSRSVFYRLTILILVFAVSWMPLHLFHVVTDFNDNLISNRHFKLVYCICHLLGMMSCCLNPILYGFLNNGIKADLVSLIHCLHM
Assay: NanoBRET screen HiBiT-NPY5R in HEK293
Type: binding
Description: Each tracer candidate was screened across the entire library of HiBiT-GPCR constructs using NanoBRET as the detection modality. As depicted in Figure 4A, the specificity of interactions was evaluated through decrease in BRET due to competitive displacement of a bound tracer by excess parental compound. Each tracer was analyzed for binding to each HiBiT-GPCR fusion in the absence and in the presence of competing parental compound. Briefly, HEK293 cells were transfected with HiBiT-GPCR constructs diluted into promoterless DNA to reduce expression and maximize translocation to the cell surface. Each tracer candidate was then screened at concentrations of 1 μM and 0.1 μM across cells expressing these fusions. Cells were treated for 1.5 h with tracer either alone or in the presence of 20 μM competing parental compound (i.e., control). BRET was measured upon addition of purified LgBiT and subsequent complementation with HiBiT genetically fused to a GPCR. The specificity of interactions was assessed through a decrease in BRET signal due to competitive displacement of the bound tracer. To further gauge the robustness of these interactions, the fold response over the control (i.e., BRETtracer/BRETcontrol) was calculated. We chose a 1.5-fold response, which translates to ≥7-fold signal over noise as the minimal threshold required to score an interaction as positive.
HiBiT-GPCR DNA constructs were diluted in 10 mM Tris pH 8 to a final concentration of 0.01 μg/μL, arrayed in 96-well plates and stored at −20 °C. For transfection, HEK293 cells were suspended in Opti-MEM (without phenol red) supplemented with 2% fetal bovine serum (Seradigm) and 100 units/mL penicillin–streptomycin (Gibco) at a final concentration of 220,000 cells/mL and dispensed into white 96-well plates at 90 μL/well. Subsequent transfections and screens were carried using an Agilent Bravo Automated Liquid Handling Platform. First, the 96-well HiBiT DNA arrays were diluted 25-fold in Opti-MEM (without serum or phenol red) to a final concentration of 0.0004 μg/μL and 20 μL of the diluted DNAs were transferred into new 96-well plates. Next, promoterless carrier DNA (1 μg/μL) was diluted 25-fold (0.04 μg/μL) and then dispensed into the diluted arrays at 20 μL/well. Following brief mixing, Viafect transfection reagent (Promega) diluted 16-fold into Opti-MEM was dispensed into the plates at 40 μL/well. After mixing by pipetting, plates were incubated for 10 min on the pipetting station deck. The DNA-transfection reagent complexes were then added to plates containing cells. To facilitate the screen, 10 μL of DNA-transfection reagent complexes were added in duplicates to the top 4 and bottom 4 rows, resulting in two identical 48-well arrays per plate. Plates with transfected cells were incubated for 18–20 h at 37 °C/5% CO2. A screen of each tracer across the entire library using two different concentrations requires duplicate plates of transfected cells. Depending on the number of tracers being screened, transfections can be scaled up using the same ratios. The next day, for each tracer, four 20× screening solutions in tracer dilution buffer (Promega) were prepared: two duplicates at final concentration of 20 μM and two duplicates at a final concentration of 2 μM. […] The four resulting solutions were diluted 4-fold in Opti-MEM without serum or phenol red to generate 5× solutions (5 µM and 0.5 µM tracer +/− 100 μM competing compound). To screen the library, a BioTek MultiFlo FX liquid dispenser was used to dispense 22.5 µL of tracer solution to the top 4 rows and 22.5 µL tracer + competing compound solution to the 4 bottom rows. Plates were briefly mixed on an orbital shaker and incubated for 1.5 h at room temperature. […] Plates were briefly mixed on an orbital shaker and incubated for 15 min to allow complementation.

Compound | NanoBRET Fold Response (NPY5R, tracer 0.1μM) | NanoBRET Fold Response (NPY5R, tracer 1μM) | also measured
CCCn1c(=O)c2[nH]c(-c3ccc(OCC(=O)NCCNC(=O)CCOCCNC(=O)c4ccc(CNC(=O)CCc5ccc6n5[B-](F)(F)[N+]5=C(c7ccc[nH]7)C=CC5=C6)cc4)cc3)nc2n(CCC)c1=O [XAC-3-NB590] | 1.02 | 1.10 | 
CC(C)N(CC[C@H](c1ccccc1)c1cc(CCNC(=O)c2ccc(CNC(=O)CCc3ccc4n3[B-](F)(F)[N+]3=C(c5ccc[nH]5)C=CC3=C4)cc2)ccc1O)C(C)C [Tolterodine-BZ-NB590] | 1.05 | 0.99 | 
COc1ccc2[nH]c(-c3ccc(CNC(=O)CCOCCOCCOCCOCCNC(=O)CCc4ccc5n4[B-](F)(F)[N+]4=C(c6ccc[nH]6)C=CC4=C5)cc3)c(CCNC(C)=O)c2n1 [AzomelatoninICO9-2-NB590] |  |  | NanoBRET Fold Response (0.1μM tracer): 0.91; NanoBRET Fold Response (1μM tracer): 1.07
CN1CCN(C2=Nc3cc(Cl)ccc3N(CC(=O)NCCOCCOCCOCCOCCNC(=O)CCc3ccc4n3[B-](F)(F)[N+]3=C(c5ccc[nH]5)C=CC3=C4)c3ccccc32)CC1 [Clozapine-c-2-NB590] |  |  | NanoBRET Fold Response (NPY5R, 0.1μM tracer): 0.99; NanoBRET Fold Response (NPY5R, 1μM tracer): 0.97
COc1ccccc1N1CCN(CCCCN2C(=O)c3ccc(CNC(=O)CCOCCNC(=O)c4ccc(CNC(=O)CCc5ccc6n5[B-](F)(F)[N+]5=C(c7ccc[nH]7)C=CC5=C6)cc4)cc3C2=O)CC1 [NAN-190-3-NB590] | 1.01 | 0.97 | 
Cc1nc2n(c(=O)c1CCN1CCC(c3noc4cc(F)ccc34)CC1)CCCC2OC(=O)NCCOCCOCCOCCOCCNC(=O)CCc1ccc2n1[B-](F)(F)[N+]1=C(c3ccc[nH]3)C=CC1=C2 (stereo not drawn) [Risperidone-2-NB590] | 0.97 | 0.96 | 
O=C(CCOCCOCCOCCOCCNC(=O)CCc1ccc2n1[B-](F)(F)[N+]1=C(c3ccc[nH]3)C=CC1=C2)NCCCN1CCN(C2=Nc3ccccc3Oc3ccc(Cl)cc32)CC1 [Loxapine-a-2-NB590] | 0.96 | 1.09 | 
CC(C)N(CC[C@H](c1ccccc1)c1cc(CCNC(=O)CCOCCOCCOCCOCCNC(=O)CCc2ccc3n2[B-](F)(F)[N+]2=C(c4ccc[nH]4)C=CC2=C3)ccc1O)C(C)C [Tolterodine-2-NB590] | 0.95 | 0.95 | 
N#CN=C(NCCCOc1cccc(CN2CCCCC2)c1)NCCNC(=O)CCOCCOCCOCCOCCNC(=O)CCc1ccc2n1[B-](F)(F)[N+]1=C(c3ccc[nH]3)C=CC1=C2 [Aminopotentidine-2-NB590] | 1.04 | 0.97 | 
CCOC(=O)c1cc(C#N)c(N2CCC(C(=O)NS(=O)(=O)Cc3ccccc3/C=C/C(=O)NCCNC(=O)CCc3ccc4n3[B-](F)(F)[N+]3=C(c5ccc[nH]5)C=CC3=C4)CC2)nc1C [AZD1283-1-NB590] |  |  | NanoBRET Fold Response (NPY5R, 0.1μM): 1.01; NanoBRET Fold Response (NPY5R, 1μM): 1.03
CN(C)CCC=C1c2ccccc2CCc2ccc(C(=O)NCCNC(=O)CCOCCOCCOCCOCCNC(=O)CCc3ccc4n3[B-](F)(F)[N+]3=C(c5ccc[nH]5)C=CC3=C4)cc21 [Amitriptyline-b-2-NB590] |  |  | NanoBRET Fold Response (tracer at 0.1μM, listed as amitriptyline-b-2-NB590): 0.89; NanoBRET Fold Response (tracer at 1μM, listed as amitriptyline-b-2-NB590): 1.02
CN(C)CCC=C1c2ccccc2CCc2ccc(C(=O)NCCNC(=O)CCOCCOCCOCCOCCNC(=O)CCc3ccc4n3[B-](F)(F)[N+]3=C(c5ccc[nH]5)C=CC3=C4)cc21 [Amitriptyline-a-2-NB590] |  |  | NanoBRET Fold Response (tracer at 0.1μM): 1.03; NanoBRET Fold Response (tracer at 1μM): 0.99
O=C(CCc1ccc2n1[B-](F)(F)[N+]1=C(c3ccc[nH]3)C=CC1=C2)NCCOCCOCCNC(=O)OCCOCCN1CCN(C2=Nc3ccccc3Sc3ccccc32)CC1 [Quetiapine-a-2-NB590] | 0.98 | 0.87 | 
Cc1cc2c(s1)Nc1ccccc1N=C2N1CCN(CCCNC(=O)CCOCCOCCOCCOCCNC(=O)CCc2ccc3n2[B-](F)(F)[N+]2=C(c4ccc[nH]4)C=CC2=C3)CC1 [Olanzapine-a-2-NB590] | 1.00 | 1.01 | 
CN1CCN(C2=Nc3cc(Cl)ccc3Nc3ccc(CNC(=O)CCOCCOCCOCCOCCNC(=O)CCc4ccc5n4[B-](F)(F)[N+]4=C(c6ccc[nH]6)C=CC4=C5)cc32)CC1 [Clozapine-b-2-NB590] |  |  | NanoBRET Fold Response (NPY5R, 0.1μM tracer): 1.02; NanoBRET Fold Response (NPY5R, 1μM tracer): 1.04
COc1ccc2c(n1)c(CCNC(C)=O)cn2CCNC(=O)CCc1ccc2n1[B-](F)(F)[N+]1=C(c3ccc[nH]3)C=CC1=C2 [Azamelatonin-1-NB590] |  |  | NanoBRET Fold Response (0.1μM tracer): 1.14; NanoBRET Fold Response (1μM tracer): 1.09
O=C(CCc1ccc2n1[B-](F)(F)[N+]1=C(c3ccc[nH]3)C=CC1=C2)NCc1ccc(C(=O)NCCOCCOCCNCC(O)COc2cccc3ccccc23)cc1 (stereo not drawn) [Propranolol-3-NB590] |  |  | NanoBRET Fold Response (NPY5R, 0.1μM): 0.99; NanoBRET Fold Response (NPY5R, 1μM): 1.01
O=C(CCOCCOCCOCCOCCNC(=O)CCc1ccc2n1[B-](F)(F)[N+]1=C(c3ccc[nH]3)C=CC1=C2)NCCCN1CCN(C2=Nc3cc(Cl)ccc3Nc3ccccc32)CC1 [Clozapine-a-2-NB590] |  |  | NanoBRET Fold Response (NPY5R, 0.1μM tracer): 1.15; NanoBRET Fold Response (NPY5R, 1μM tracer): 0.96

Source: paper PMC8151276, “An Integrated Approach toward NanoBRET Tracers for Analysis of GPCR Ligand Engagement” (Molecules, 2021)
